#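 Test compounds were applied to cells in 96-well plates for 48 hours at 5 doses. Here, GI50 denotes the concentration required for 50% inhibition of growth. TGI is the concentration that stops growth completely.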
# How the values were obtained:
# Assay in all cases: DTP human tumour cell line panel, 48 h
# A549 NSCLC = system: A549 NSCLC
# RPMI-8226 leukemia = system: RPMI-8226 leukemia
# TK-10 renal = system: TK-10 renal
# SNB-75 CNS = system: SNB-75 CNS
# SK-OV-3 ovarian = system: SK-OV-3 ovarian
# OVCAR-4 ovarian = system: OVCAR-4 ovarian
# OVCAR-5 ovarian = system: OVCAR-5 ovarian
# HCT-15 colon = system: HCT-15 colon
# HT29 colon = system: HT29 colon
# RXF 393 renal = system: RXF 393 renal
# NCI-H23 lung = system: NCI-H23 lung
# ACHN renal = system: ACHN renal
# SN12C renal = system: SN12C renal
# NCI-H460 lung = system: NCI-H460 lung
# HS 578T breast = system: HS 578T breast
# UACC-62 melanoma = system: UACC-62 melanoma
# SK-MEL-5 melanoma = system: SK-MEL-5 melanoma
# SW-620 colon = system: SW-620 colon
# SF-539 CNS = system: SF-539 CNS
# PC-3 prostate = system: PC-3 prostate
# BT-549 breast = system: BT-549 breast
# LOX IMVI melanoma = system: LOX IMVI melanoma
# OVCAR-8 ovarian = system: OVCAR-8 ovarian
# M14 melanoma = system: M14 melanoma
# SF-268 CNS = system: SF-268 CNS
# U251 CNS = system: U251 CNS
# HOP-62 NSCLC = system: HOP-62 NSCLC
# NCI-H522 lung = system: NCI-H522 lung
# KM12 colon = system: KM12 colon
# A498 renal = system: A498 renal
# UO-31 renal = system: UO-31 renal
# SF-295 CNS = system: SF-295 CNS
# HL-60(TB) leukemia = system: HL-60(TB) leukemia
# SNB-19 CNS = system: SNB-19 CNS
# UACC-257 melanoma = system: UACC-257 melanoma
# IGROV1 ovarian = system: IGROV1 ovarian
# CAKI-1 renal = system: CAKI-1 renal
# OVCAR-3 ovarian = system: OVCAR-3 ovarian
# MDA-MB-435 = system: MDA-MB-435
# DU-145 prostate = system: DU-145 prostate
# NCI/ADR-RES ovarian = system: NCI/ADR-RES ovarian
# CCRF-CEM leukemia = system: CCRF-CEM leukemia
# SK-MEL-28 melanoma = system: SK-MEL-28 melanoma
# HCT-116 colon = system: HCT-116 colon
# HCC-2998 colon = system: HCC-2998 colon
# MOLT-4 leukemia = system: MOLT-4 leukemia
# MALME-3M melanoma = system: MALME-3M melanoma
# SR leukemia = system: SR leukemia
# 786-0 renal = system: 786-0 renal
# NCI-H226 lung = system: NCI-H226 lung
# SK-MEL-2 melanoma = system: SK-MEL-2 melanoma
# COLO 205 colon = system: COLO 205 colon
# HOP-92 NSCLC = system: HOP-92 NSCLC
# EKVX NSCLC = system: EKVX NSCLC
# MDA-MB-231 breast = system: MDA-MB-231 breast
# K-562 leukemia = system: K-562 leukemia
compound,measurement,setting,value
COc1ccc2nc3cc(Cl)ccc3c(N3CCN(c4ccnc(N5CCN(C)CC5)n4)CC3)c2c1,GI50,A549 NSCLC,14800 nM
same,TGI,A549 NSCLC,36000 nM
same,GI50,RPMI-8226 leukemia,2040 nM
same,TGI,RPMI-8226 leukemia,4840 nM
same,GI50,TK-10 renal,1760 nM
same,TGI,TK-10 renal,3200 nM
same,GI50,SNB-75 CNS,1470 nM
same,TGI,SNB-75 CNS,3050 nM
same,GI50,SK-OV-3 ovarian,12900 nM
same,TGI,SK-OV-3 ovarian,26200 nM
same,GI50,OVCAR-4 ovarian,1610 nM
same,TGI,OVCAR-4 ovarian,3020 nM
same,GI50,OVCAR-5 ovarian,1810 nM
same,TGI,OVCAR-5 ovarian,3900 nM
same,GI50,HCT-15 colon,1600 nM
same,TGI,HCT-15 colon,3210 nM
same,GI50,HT29 colon,1740 nM
same,TGI,HT29 colon,3670 nM
same,GI50,RXF 393 renal,1360 nM
same,TGI,RXF 393 renal,2780 nM
same,GI50,NCI-H23 lung,2020 nM
same,TGI,NCI-H23 lung,4170 nM
same,GI50,ACHN renal,1750 nM
same,TGI,ACHN renal,3330 nM
same,GI50,SN12C renal,2840 nM
same,TGI,SN12C renal,8370 nM
same,GI50,NCI-H460 lung,2290 nM
same,TGI,NCI-H460 lung,5430 nM
same,GI50,HS 578T breast,2700 nM
same,TGI,HS 578T breast,8290 nM
same,GI50,UACC-62 melanoma,1860 nM
same,TGI,UACC-62 melanoma,3690 nM
same,GI50,SK-MEL-5 melanoma,11300 nM
same,TGI,SK-MEL-5 melanoma,28000 nM
same,GI50,SW-620 colon,1800 nM
same,TGI,SW-620 colon,3530 nM
same,GI50,SF-539 CNS,1770 nM
same,TGI,SF-539 CNS,3300 nM
same,GI50,PC-3 prostate,1920 nM
same,TGI,PC-3 prostate,3870 nM
same,GI50,BT-549 breast,3160 nM
same,TGI,BT-549 breast,13400 nM
same,GI50,LOX IMVI melanoma,1890 nM
same,TGI,LOX IMVI melanoma,3450 nM
same,GI50,OVCAR-8 ovarian,1930 nM
same,TGI,OVCAR-8 ovarian,3980 nM
same,GI50,M14 melanoma,2040 nM
same,TGI,M14 melanoma,4060 nM
same,GI50,SF-268 CNS,1990 nM
same,TGI,SF-268 CNS,3890 nM
same,GI50,U251 CNS,1770 nM
same,TGI,U251 CNS,3430 nM
same,GI50,HOP-62 NSCLC,3510 nM
same,TGI,HOP-62 NSCLC,12400 nM
same,GI50,NCI-H522 lung,1610 nM
same,TGI,NCI-H522 lung,3130 nM
same,GI50,KM12 colon,2090 nM
same,TGI,KM12 colon,4380 nM
same,GI50,A498 renal,10300 nM
same,TGI,A498 renal,40700 nM
same,GI50,UO-31 renal,1770 nM
same,TGI,UO-31 renal,3410 nM
same,GI50,SF-295 CNS,19500 nM
same,TGI,SF-295 CNS,54100 nM
same,GI50,HL-60(TB) leukemia,2140 nM
same,TGI,HL-60(TB) leukemia,5030 nM
same,GI50,SNB-19 CNS,2230 nM
same,TGI,SNB-19 CNS,5440 nM
same,GI50,UACC-257 melanoma,11400 nM
same,TGI,UACC-257 melanoma,24400 nM
same,GI50,IGROV1 ovarian,2240 nM
same,TGI,IGROV1 ovarian,5080 nM
same,GI50,CAKI-1 renal,1570 nM
same,TGI,CAKI-1 renal,3070 nM
same,GI50,OVCAR-3 ovarian,1840 nM
same,TGI,OVCAR-3 ovarian,3250 nM
same,GI50,MDA-MB-435,1790 nM
same,TGI,MDA-MB-435,3660 nM
same,GI50,DU-145 prostate,1840 nM
same,TGI,DU-145 prostate,3360 nM
same,GI50,NCI/ADR-RES ovarian,3660 nM
same,TGI,NCI/ADR-RES ovarian,12400 nM
same,GI50,CCRF-CEM leukemia,1610 nM
same,TGI,CCRF-CEM leukemia,4150 nM
same,GI50,SK-MEL-28 melanoma,1730 nM
same,TGI,SK-MEL-28 melanoma,3290 nM
same,GI50,HCT-116 colon,1610 nM
same,TGI,HCT-116 colon,3050 nM
same,GI50,HCC-2998 colon,1990 nM
same,TGI,HCC-2998 colon,3690 nM
same,GI50,MOLT-4 leukemia,2380 nM
same,TGI,MOLT-4 leukemia,5810 nM
same,GI50,MALME-3M melanoma,2200 nM
same,TGI,MALME-3M melanoma,4000 nM
same,GI50,SR leukemia,2190 nM
same,TGI,SR leukemia,5940 nM
same,GI50,786-0 renal,1610 nM
same,TGI,786-0 renal,3000 nM
same,GI50,NCI-H226 lung,49600 nM
same,TGI,NCI-H226 lung,> 100000 nM
same,GI50,SK-MEL-2 melanoma,3720 nM
same,TGI,SK-MEL-2 melanoma,12200 nM
same,GI50,COLO 205 colon,1940 nM
same,TGI,COLO 205 colon,3670 nM
same,GI50,HOP-92 NSCLC,1590 nM
same,TGI,HOP-92 NSCLC,3360 nM
C=C1C(=O)O[C@H]2[C@H]1CC/C(COC(=O)NCc1c[nH]c3ccc(F)cc13)=C\CC[C@@]1(C)O[C@@H]21,GI50,A549 NSCLC,3170 nM
same,TGI,A549 NSCLC,10900 nM
same,GI50,RPMI-8226 leukemia,456 nM
same,TGI,RPMI-8226 leukemia,2270 nM
same,GI50,TK-10 renal,1580 nM
same,TGI,TK-10 renal,3000 nM
same,GI50,SNB-75 CNS,1330 nM
same,TGI,SNB-75 CNS,2760 nM
same,GI50,SK-OV-3 ovarian,11100 nM
same,TGI,SK-OV-3 ovarian,23100 nM
same,GI50,OVCAR-4 ovarian,1520 nM
same,TGI,OVCAR-4 ovarian,3590 nM
same,GI50,OVCAR-5 ovarian,1810 nM
same,TGI,OVCAR-5 ovarian,4050 nM
same,GI50,HCT-15 colon,1040 nM
same,TGI,HCT-15 colon,2550 nM
same,GI50,HT29 colon,1070 nM
same,TGI,HT29 colon,2580 nM
same,GI50,RXF 393 renal,1530 nM
same,TGI,RXF 393 renal,3000 nM
same,GI50,NCI-H23 lung,1830 nM
same,TGI,NCI-H23 lung,3890 nM
same,GI50,ACHN renal,1360 nM
same,TGI,ACHN renal,2670 nM
same,GI50,SN12C renal,1320 nM
same,TGI,SN12C renal,2840 nM
same,GI50,NCI-H460 lung,2400 nM
same,TGI,NCI-H460 lung,6030 nM
same,GI50,HS 578T breast,3360 nM
same,TGI,HS 578T breast,26600 nM
same,GI50,UACC-62 melanoma,1470 nM
same,TGI,UACC-62 melanoma,2870 nM
same,GI50,SK-MEL-5 melanoma,1690 nM
same,TGI,SK-MEL-5 melanoma,3110 nM
same,GI50,SW-620 colon,619 nM
same,TGI,SW-620 colon,2650 nM
same,GI50,SF-539 CNS,1630 nM
same,TGI,SF-539 CNS,3360 nM
same,GI50,PC-3 prostate,1480 nM
same,TGI,PC-3 prostate,3050 nM
same,GI50,BT-549 breast,1150 nM
same,TGI,BT-549 breast,2500 nM
same,GI50,LOX IMVI melanoma,952 nM
same,TGI,LOX IMVI melanoma,2280 nM
same,GI50,OVCAR-8 ovarian,1680 nM
same,TGI,OVCAR-8 ovarian,3910 nM
same,GI50,M14 melanoma,1230 nM
same,TGI,M14 melanoma,2730 nM
same,GI50,SF-268 CNS,1810 nM
same,TGI,SF-268 CNS,3900 nM
same,GI50,U251 CNS,2350 nM
same,TGI,U251 CNS,5810 nM
same,GI50,HOP-62 NSCLC,2000 nM
same,TGI,HOP-62 NSCLC,4560 nM
same,GI50,NCI-H522 lung,835 nM
same,TGI,NCI-H522 lung,2400 nM
same,GI50,KM12 colon,3030 nM
same,TGI,KM12 colon,10300 nM
same,GI50,A498 renal,3460 nM
same,TGI,A498 renal,12900 nM
same,GI50,UO-31 renal,1520 nM
same,TGI,UO-31 renal,2870 nM
same,GI50,SF-295 CNS,4290 nM
same,TGI,SF-295 CNS,16600 nM
same,GI50,SNB-19 CNS,6560 nM
same,TGI,SNB-19 CNS,20000 nM
same,GI50,EKVX NSCLC,1890 nM
same,TGI,EKVX NSCLC,4510 nM
same,GI50,UACC-257 melanoma,1690 nM
same,TGI,UACC-257 melanoma,3290 nM
same,GI50,IGROV1 ovarian,1540 nM
same,TGI,IGROV1 ovarian,3340 nM
same,GI50,CAKI-1 renal,1530 nM
same,TGI,CAKI-1 renal,3180 nM
same,GI50,OVCAR-3 ovarian,984 nM
same,TGI,OVCAR-3 ovarian,3070 nM
same,GI50,MDA-MB-435,1310 nM
same,TGI,MDA-MB-435,3100 nM
same,GI50,DU-145 prostate,1080 nM
same,TGI,DU-145 prostate,2480 nM
same,GI50,NCI/ADR-RES ovarian,3580 nM
same,TGI,NCI/ADR-RES ovarian,20300 nM
same,GI50,CCRF-CEM leukemia,302 nM
same,TGI,CCRF-CEM leukemia,1200 nM
same,GI50,SK-MEL-28 melanoma,1630 nM
same,TGI,SK-MEL-28 melanoma,3240 nM
same,GI50,HCT-116 colon,703 nM
same,TGI,HCT-116 colon,2040 nM
same,GI50,HCC-2998 colon,1770 nM
same,TGI,HCC-2998 colon,3410 nM
same,GI50,MOLT-4 leukemia,1420 nM
same,TGI,MOLT-4 leukemia,5070 nM
same,GI50,MALME-3M melanoma,1660 nM
same,TGI,MALME-3M melanoma,3320 nM
same,GI50,MDA-MB-231 breast,1630 nM
same,TGI,MDA-MB-231 breast,3160 nM
same,GI50,SR leukemia,266 nM
same,TGI,SR leukemia,5850 nM
same,GI50,786-0 renal,899 nM
same,TGI,786-0 renal,2430 nM
same,GI50,NCI-H226 lung,1740 nM
same,TGI,NCI-H226 lung,3300 nM
same,GI50,K-562 leukemia,291 nM
same,TGI,K-562 leukemia,1860 nM
same,GI50,SK-MEL-2 melanoma,1500 nM
same,TGI,SK-MEL-2 melanoma,3390 nM
same,GI50,COLO 205 colon,1390 nM
same,TGI,COLO 205 colon,2950 nM
same,GI50,HOP-92 NSCLC,1480 nM
same,TGI,HOP-92 NSCLC,3040 nM
